Values joined by “and” are separate entries in the source; they are usually repeats but may differ in a detail not shown here. Equal entries are not always repeated. Where two headings read alike, the source gives them in different places.
Tests used:
Experiment in all cases: β-Lactamase inhibitory activity: antibiotic MIC alone or in combination
Assay type in all cases: cell-based
S. aureus Russell = details: Staphylococcus aureus
From the text: (§1) These tables show the MIC values of amoxycillin, cephaloridine, ticarcillin and apalcillin against a number of β-lactamase producing organisms.

P. mirabilis 889 = test system: P. mirabilis 889
From the text: as §1

K. aerogenes Ba95R+ = details: Klebsiella aerogenes
From the text: as §1

E. coli 0111 = test system: E. coli 0111
From the text: as §1

P. rettgeri WM16 = details: for MIC: Providencia rettgeri
From the text: as §1

P. morganii 1580 = test system: P. morganii 1580
From the text: as §1

E. coli JT410 C+ = details: for MIC: Escherichia coli
From the text: as §1

C. freundii E8 = details: for MIC: Citrobacter freundii
From the text: as §1

K. aerogenes I112 = details: for MIC: Klebsiella aerogenes
From the text: as §1

P. vulgaris WO91 = details: for MIC: Proteus vulgaris
From the text: as §1

P. mirabilis 977 = test system: P. mirabilis 977
From the text: as §1

P. aeruginosa Dalgleish = details: Pseudomonas aeruginosa
From the text: as §1

C. freundii B10R+ = details: Citrobacter freundii
From the text: as §1

E. coli JT20R+ = details: Escherichia coli
From the text: as §1

P. aeruginosa A = details: Pseudomonas aeruginosa
From the text: as §1

E. coli JT39R+ = details: for MIC: Escherichia coli
From the text: as §1

E. cloacae T 153 = details: Enterobacter cloacae, T153; amoxycillin alone
E. cloacae N1 = details: for MIC: Enterobacter cloacae
S. aureus MB9 = details: Staphylococcus aureus
From the text: as §1

K. aerogenes A = details: Klebsiella aerogenes
From the text: as §1

S. marcescens US20 = details: for MIC: Serratia marcescens
From the text: as §1

[1] = amoxycillin alone, read-out: Amoxycillin MIC
[2] = ticarcillin alone, read-out: Ticarcillin MIC
[3] = cephaloridine alone, read-out: Cephaloridine MIC

Structure (SMILES): CC1(C)S[C@@H]2[C@H](NC(=O)[C@H](N)c3ccc(O)cc3)C(=O)N2[C@H]1C(=O)O [Amoxycillin]
- MIC (S. aureus Russell; [1]): 100 µg/mL
- MIC (P. mirabilis 889; Proteus mirabilis, 889, amoxycillin alone, read-out: Amoxycillin MIC): > 1000 µg/mL
- MIC (K. aerogenes Ba95R+; read-out: Amoxycillin MIC): > 1000 µg/mL
- MIC (E. coli 0111; Escherichia coli, 0111, amoxycillin alone, read-out: Amoxycillin MIC): 10 µg/mL
- Amoxycillin MIC (E. coli 0111; amoxycillin alone): 5 µg/mL and 5.0 µg/mL
- MIC (P. rettgeri WM16; WM16, amoxycillin alone, read-out: Amoxycillin MIC): 1000 µg/mL
- Amoxycillin MIC (P. rettgeri WM16; amoxycillin alone): 500 µg/mL
- MIC (P. morganii 1580; Morganella morganii, 1580, amoxycillin alone, read-out: Amoxycillin MIC): 1000 µg/mL
- Amoxycillin MIC (P. morganii 1580; amoxycillin alone): > 1000 µg/mL
- MIC (E. coli JT410 C+; [1]): 250 µg/mL
- Amoxycillin MIC (E. coli JT410 C+; amoxycillin alone): 500 µg/mL
- MIC (C. freundii E8; E8, amoxycillin alone, read-out: Amoxycillin MIC): 250 µg/mL
- Amoxycillin MIC (C. freundii E8; amoxycillin alone): 500 µg/mL
- MIC (K. aerogenes I112; I112, read-out: Amoxycillin MIC, amoxycillin alone): 500 µg/mL
- Amoxycillin MIC (K. aerogenes I112; amoxycillin alone): 250 µg/mL
- MIC (P. vulgaris WO91; WO91, amoxycillin alone, read-out: Amoxycillin MIC): > 1000 µg/mL
- Amoxycillin MIC (P. vulgaris WO91; amoxycillin alone): 1000 µg/mL
- MIC (P. mirabilis 977; Proteus mirabilis, 977, amoxycillin alone, read-out: Amoxycillin MIC): 2.5 µg/mL
- MIC (P. aeruginosa Dalgleish; [1]): > 1000 µg/mL
- MIC (C. freundii B10R+; read-out: Amoxycillin MIC): > 1000 µg/mL
- MIC (E. coli JT20R+; read-out: Amoxycillin MIC): > 1000 µg/mL
- MIC (P. aeruginosa A; [1]): > 1000 µg/mL
- MIC (E. coli JT39R+; read-out: Amoxycillin MIC, amoxycillin alone): > 1000 µg/mL
- Amoxycillin MIC (E. coli JT39R+; amoxycillin alone): 1000 µg/mL
- MIC (E. cloacae T 153): 1000 µg/mL
- MIC (E. cloacae N1; N1, amoxycillin alone, read-out: Amoxycillin MIC): 500 µg/mL

Structure (SMILES): CC1(C)S[C@@H]2[C@H](NC(=O)[C@H](C(=O)O)c3ccsc3)C(=O)N2[C@H]1C(=O)O [Ticarcillin]
- MIC (S. aureus Russell; [2]): 25 µg/mL
- MIC (P. mirabilis 889; Proteus mirabilis, 889, ticarcillin alone, read-out: Ticarcillin MIC): > 1000 µg/mL
- MIC (K. aerogenes Ba95R+; read-out: Ticarcillin MIC): > 1000 µg/mL
- MIC (S. aureus MB9; MB9, ticarcillin alone, read-out: Ticarcillin MIC): 10 µg/mL
- MIC (K. aerogenes A; [2]): 100 µg/mL
- MIC (E. coli 0111; Escherichia coli, 0111, ticarcillin alone, read-out: Ticarcillin MIC): 5 µg/mL
- MIC (C. freundii E8; E8, ticarcillin alone, read-out: Ticarcillin MIC): 2.5 µg/mL
- Ticarcillin MIC (C. freundii E8; ticarcillin alone): 5.0 µg/mL
- MIC (S. marcescens US20; US20, ticarcillin alone, read-out: Ticarcillin MIC): 5 µg/mL
- MIC (K. aerogenes I112; I112, read-out: Ticarcillin MIC, ticarcillin alone): 500 µg/mL
- Ticarcillin MIC (K. aerogenes I112; ticarcillin alone): 250 µg/mL
- MIC (P. mirabilis 977; Proteus mirabilis, 977, ticarcillin alone, read-out: Ticarcillin MIC): 1 µg/mL
- MIC (P. aeruginosa Dalgleish; [2]): > 1000 µg/mL
- MIC (C. freundii B10R+; read-out: Ticarcillin MIC): > 1000 µg/mL
- MIC (E. coli JT20R+; read-out: Ticarcillin MIC): > 1000 µg/mL
- MIC (P. aeruginosa A; [2]): 25 µg/mL
- MIC (E. coli JT39R+; read-out: Ticarcillin MIC, ticarcillin alone): > 1000 µg/mL
- MIC (E. cloacae N1; N1, ticarcillin alone, read-out: Ticarcillin MIC): 2.5 µg/mL

Structure (SMILES): O=C(Cc1cccs1)N[C@@H]1C(=O)N2C(C(=O)[O-])=C(C[n+]3ccccc3)CS[C@H]12 [Cephaloridine]
- MIC (K. aerogenes Ba95R+; read-out: Cephaloridine MIC): 100 µg/mL
- MIC (S. aureus MB9; MB9, cephaloridine alone, read-out: Cephaloridine MIC): < 0.2 µg/mL
- MIC (K. aerogenes A; [3]): 2.5 µg/mL
- MIC (E. coli 0111; Escherichia coli, 0111, cephaloridine alone, read-out: Cephaloridine MIC): 2.5 µg/mL
- Cephaloridine MIC (E. coli 0111; cephaloridine alone): 5.0 µg/mL
- MIC (P. rettgeri WM16; WM16, cephaloridine alone, read-out: Cephaloridine MIC): 1000 µg/mL
- Cephaloridine MIC (P. rettgeri WM16; cephaloridine alone): > 1000 µg/mL
- MIC (P. morganii 1580; Morganella morganii, 1580, cephaloridine alone, read-out: Cephaloridine MIC): 1000 µg/mL
- Cephaloridine MIC (P. morganii 1580; cephaloridine alone): > 1000 µg/mL
- MIC (E. coli JT410 C+; [3]): 50 µg/mL
- Cephaloridine MIC (E. coli JT410 C+; cephaloridine alone): 100 µg/mL
- MIC (C. freundii E8; E8, cephaloridine alone, read-out: Cephaloridine MIC): 500 µg/mL
- MIC (S. marcescens US20; US20, cephaloridine alone, read-out: Cephaloridine MIC): 1000 µg/mL
- Cephaloridine MIC (S. marcescens US20; cephaloridine alone): > 1000 µg/mL
- MIC (K. aerogenes I112; I112, read-out: Cephaloridine MIC, cephaloridine alone): 5 µg/mL
- MIC (P. vulgaris WO91; WO91, cephaloridine alone, read-out: Cephaloridine MIC): 1000 µg/mL
- Cephaloridine MIC (P. vulgaris WO91; cephaloridine alone): > 1000 µg/mL
- MIC (P. mirabilis 977; Proteus mirabilis, 977, cephaloridine alone, read-out: Cephaloridine MIC): 10 µg/mL
- Cephaloridine MIC (P. mirabilis 977; cephaloridine alone): 5.0 µg/mL
- MIC (P. aeruginosa Dalgleish; [3]): > 1000 µg/mL
- MIC (C. freundii B10R+; read-out: Cephaloridine MIC): > 1000 µg/mL
- MIC (E. coli JT20R+; read-out: Cephaloridine MIC): 25 µg/mL
- MIC (P. aeruginosa A; [3]): > 1000 µg/mL
- MIC (E. coli JT39R+; read-out: Cephaloridine MIC, cephaloridine alone): 5 µg/mL
- Cephaloridine MIC (E. coli JT39R+; cephaloridine alone): 10 µg/mL
- MIC (E. cloacae N1; N1, cephaloridine alone, read-out: Cephaloridine MIC): 500 µg/mL
- Cephaloridine MIC (E. cloacae N1; cephaloridine alone): 1000 µg/mL
